# Experimental data taken from patent EP3741762A1, “OXALAMIDO-SUBSTITUTED TRICYCLIC INHIBITORS OF HEPATITIS B VIRUS” (priority 2019, dated 2020).
# Test system: HBV
# Assay: Anti-HBV activity in vitro: quantification of extracellular HBV DNA by direct qPCR in HepAD38 cells
# Format: cell-based
# Conditions: Hepatitis B virus, tetracycline-free medium, 96 hours at 37°C, reported as EC50 threshold value, read-out: HBV inh EC50
# Description: HepAD38 cell line (Ladner et al., Antimicrob Agents Chemother, 1997, 41, 1715-20) was used for HBV inhibition assays. HepAD38 is a subclone, derived from Hepatoblastoma cell line HepG2 (ATCC® Number: HB-8065™), that expresses HBV genome under the transcriptional control of a tetracycline-responsive promoter in a TET-OFF system: addition of tetracycline (TET) or doxycycline suppresses HBV replication, while its removal switches on the process allowing HBV viral particles release in the cell supernatant. HepAD38 cell line is maintained in DMEM/F12, supplemented with 10% of fetal bovine serum, 1% of glutamine, 1% of penicillin/streptomycin, 0.4 mg/ml G418 and 0,3 ug/ml tetracycline. For the HBV inhibition assay, doxycycline-free medium is used in order to allow virion production.
# HBV inhibition activity in vitro was performed in 96 multiwell plates. During the initial (primary) screening, compounds were first tested in triplicates at concentrations of 0.02 µM, 0.1 µM, 0.5µM and 1µM. For selected compounds, an 8-point dose-response curve was obtained using 1:2 serial dilutions (starting from 0.01µM, 0.1µM, 0.4µM or 5 µM, depending on the degree of inhibition observed during the primary screening). From the dose-response curves, half maximal effective concentration (EC50) could be calculated (see also below).
# In more detail, compounds - typically dissolved in DMSO stock solutions - were diluted to 2x the final desired concentration in 100 µl of the above medium (without doxycycline) and plated in three replicates in the 96-well plates.
# Simultaneously, HepAD38 cells - extensively pre-washed in tetracycline-free medium in order to induce HBV production - were suspended at 2^∗10^4 cells in 100 µl of tetracycline-free medium and added to each well of the plate, to yield a final assay volume of 200 µl DMSO - used for stock solutions and compounds dilutions - which was always present in the assays at a final concentration of 0.5%.
# Plates were then incubated 96 hours at 37°C and then subjected to cell viability assays and extracellular HBV quantification, in order to evaluate both the cytotoxic potential and the antiviral activity of compounds. Cytotoxicity was assessed by a commercial fluorescence assay that measures the metabolic activity of cells, directly related to cell viability (Cell Titer Blue, Promega). Anti-HBV activity was evaluated by quantification of extracellular HBV DNA with direct qPCR. In particular, supernatant was collected and centrifuged for cell debris clarification, viral DNA was extracted from virions by addition of lysis buffer (1 mM 1,4-dithiothreitol, 0.2% sodium dodecyl sulphate) and incubated at 95°C for 10 min. Samples were then diluted 1:40 and real time PCR amplification was performed with SYBR green assay (Power SYBR™ Green PCR Master Mix-Thermo Fisher Scientific) and specific HBV primer (HBV-DF:5'-[…]-3' (SEQ ID No. 1), HBV-DR:5'-[…]-3' (SEQ ID No.2)).
# Antiviral activity data for each compound are reported as EC50 threshold value (see Table 1 legend). Excel and Graphpad Prism programs are typically used for data elaboration and EC50 calculation.
row,SMILES,EC50 [µM]
1,"CNC(=O)C(=O)N1C[C@H]2CSc3c(cn(C)c3C(=O)Nc3ccc(F)c(C)c3)S(=O)(=O)N[C@H]2C1 [Example E35, (3aR,10aR)-N-(4-fluoro-3-methylphenyl)-7-methyl-2-(2-(methylamino)-2-oxoacetyl)-2,3,3a,4,10,10a-hexahydro-1H,7H-dipyrrolo[3,4-c:3',4'-g][1,6,2]dithiazocine-8-carboxamide 5,5-dioxide]",< 0.5
2,"Cc1cc(NC(=O)c2c3c(cn2C)S(=O)(=O)N[C@H]2CN(C(=O)C(=O)N4CC(F)(F)C4)C[C@H]2CS3)ccc1F [Example E36, (3aR,10aR)-2-(2-(3,3-difluoroazetidin-1-yl)-2-oxoacetyl)-N-(4-fluoro-3-methylphenyl)-7-methyl-2,3,3a,4,10,10a-hexahydro-1H,7H-dipyrrolo[3,4-c:3',4'-g][1,6,2]dithiazocine-8-carboxamide 5,5-dioxide]",< 0.5
3,"Cc1cc(NC(=O)c2c3c(cn2C)S(=O)(=O)N[C@H]2CN(C(=O)C(=O)N[C@@H](C)C(F)(F)F)C[C@H]2CS3)ccc1F [Example E37, (3aR,10aR)-N-(4-fluoro-3-methylphenyl)-7-methyl-2-(2-oxo-2-(((S)-1,1,1-trifluoropropan-2-yl)amino)acetyl)-2,3,3a,4,10,10a-hexahydro-1H,7H-dipyrrolo[3,4-c:3',4'-g][1,6,2]dithiazocine-8-carboxamide 5,5-dioxide]",< 0.5
4,"Cc1cc(NC(=O)c2c3c(cn2C)S(=O)(=O)N[C@H]2CN(C(=O)C(=O)NCC(F)(F)F)C[C@H]2CS3)ccc1F [Example E38, (3aR,10aR)-N-(4-fluoro-3-methylphenyl)-7-methyl-2-(2-oxo-2-((2,2,2-trifluoroethyl)amino)acetyl)-2,3,3a,4,10,10a-hexahydro-1H,7H-dipyrrolo[3,4-c:3',4'-g][1,6,2]dithiazocine-8-carboxamide 5,5-dioxide]",< 0.5
5,"Cc1cc(NC(=O)c2c3c(cn2C)S(=O)(=O)N[C@H]2CN(C(=O)C(=O)NCC4CC4)C[C@H]2CS3)ccc1F [Example E39, (3aR,10aR)-2-(2-((cyclopropylmethyl)amino)-2-oxoacetyl)-N-(4-fluoro-3-methylphenyl)-7-methyl-2,3,3a,4,10,10a-hexahydro-1H,7H-dipyrrolo[3,4-c:3',4'-g][1,6,2]dithiazocine-8-carboxamide 5,5-dioxide]",< 0.5
6,"Cc1cc(NC(=O)c2c3c(cn2C)S(=O)(=O)N[C@H]2CN(C(=O)C(=O)NC4(C)CC4)C[C@H]2CS3)ccc1F [Example E40, (3aR,10aR)-N-(4-fluoro-3-methylphenyl)-7-methyl-2-(2-((1-methylcyclopropyl)amino)-2-oxoacetyl)-2,3,3a,4,10,10a-hexahydro-1H,7H-dipyrrolo[3,4-c:3',4'-g][1,6,2]dithiazocine-8-carboxamide 5,5-dioxide]",< 0.5
7,"Cc1cc(NC(=O)c2c3c(cn2C)S(=O)(=O)N[C@H]2CN(C(=O)C(=O)NC4CC(F)(F)C4)C[C@H]2CS3)ccc1F [Example E41, (3aR,10aR)-2-(2-((3,3-difluorocyclobutyl)amino)-2-oxoacetyl)-N-(4-fluoro-3-methylphenyl)-7-methyl-2,3,3a,4,10,10a-hexahydro-1H,7H-dipyrrolo[3,4-c:3',4'-g][1,6,2]dithiazocine-8-carboxamide 5,5-dioxide]",< 0.5
8,"Cc1cc(NC(=O)c2c3c(cn2C)S(=O)(=O)N[C@H]2CN(C(=O)C(=O)NC4(C)COC4)C[C@H]2CS3)ccc1F [Example E42, (3aR,10aR)-N-(4-fluoro-3-methylphenyl)-7-methyl-2-(2-((3-methyloxetan-3-yl)amino)-2-oxoacetyl)-2,3,3a,4,10,10a-hexahydro-1H,7H-dipyrrolo[3,4-c:3',4'-g][1,6,2]dithiazocine-8-carboxamide 5,5-dioxide]",< 0.5
